The source of these data is US6610682B2, “Pharmaceutical compositions and methods for the treatment of arteriosclerosis” (Sankyo Company, Limited, priority 1996, dated 2003).

What all share (assay type): in vivo, rabbit
The subject of assay [1] is WHHL rabbits. The assay is described as follows: Arterial sclerosis progress inhibitory effect: surface area of aortic lesions (Example 2, 31 weeks). To be noted: oral, CS-866 0.5 mg/kg, pioglitazone 20 mg/kg, BRL-49653 2.5 mg/kg, alone or combined, autopsy in 31st week. As for the experimental part:
A certain amount of an agent was administered orally for 31 weeks to 2-3 months old WHHL rabbits, Watanabe genetically hyperlipemic rabbits: described supra (Biochimica et Biophysica Acta), etc., in groups of 5 to 7 animals each. Incidentally, food consumption was restricted to 100 g/day per animal. Blood samples were collected immediately before administration of the agent and 8, 16, 24 and 31 weeks after the start of administration to measure total cholesterol levels (mg/dl). There were no changes observed in any of the dose groups as compared with the control group to which no agents were administered. In addition, the test animals were subjected to autopsy in the 31st week to investigate the surface area of aortic lesions (%) and the incidence of xanthochromia in finger joints.

Assay [2] relates to WHHL rabbits. The assay is described as follows: Incidence of xanthochromia in finger joints (Example 1, 32 weeks). As to conditions: oral, CS-866 1 mg/kg, troglitazone 25 mg/kg, alone or combined. As for the experimental part: (§1) A certain amount of an agent was administered orally for 32 weeks to 2-3 months old WHHL rabbits, Watanabe genetically hyperlipemic rabbits: supra (Biochimica et Biophysica Acta), etc., in groups of 4 to 7 animals each. Incidentally, food consumption was restricted to 120 g/day per animal. Blood samples were collected immediately before administration of the agent and 4, 8, 12, 16, 20, 24, 28 and 32 weeks after the start of administration to measure total cholesterol levels (mg/dl). There were no changes observed in any of the dose groups as compared with the control group to which no agents were administered. The test animals were subjected to autopsy in the 32nd week to investigate the surface area of aortic lesions (%) and the incidence of xanthochromia in finger joints (%).

The subject of assay [3] is WHHL rabbits. The assay is described as follows: Arterial sclerosis progress inhibitory effect: surface area of aortic lesions (Example 1, 32 weeks). To be noted: oral, CS-866 1 mg/kg, troglitazone 25 mg/kg, alone or combined, autopsy in 32nd week. Here is the method: as §1

Molecules are shown by their SMILES.

With `CCc1ccc(CCOc2ccc(CC3SC(=O)NC3=O)cc2)nc1` (centres unmarked) [Pioglitazone, 5-[4-[2-(5-ethyl-pyridin-2-yl)ethoxy]phenylmethyl]-2,4-thiazolidinedione], in assay [1], the “Lesion surface area (%) Abdominal region” value is given as 32 ± 6%, the “Lesion surface area (%) Arcuate region” value was found to be 65 ± 6%, the “Lesion surface area (%) Overall” value was determined as 52 ± 8% and the “Lesion surface area (%) Thoracic part” value worked out at 62 ± 12%.
With `Cc1c(C)c2c(c(C)c1O)CCC(C)(COc1ccc(CC3SC(=O)NC3=O)cc1)O2` (centres unmarked) [Troglitazone, 5-[4-(6-hydroxy-2,5,7,8-tetramethylchroman-2-ylmethoxy)benzyl]-2,4-thiazolidinedione], in assay [2], the “Xanthochromia incidence (%) Forelimbs” value was determined as 93%, the “Xanthochromia incidence (%) Hindlimbs” value is 86% and the “Xanthochromia incidence (%) Overall” value is 89%. Further, in assay [3], the “Lesion surface area (%) Abdominal region” value is given as 32%, the “Lesion surface area (%) Arcuate region” value came to 80%, the “Lesion surface area (%) Overall” value was 54% and the “Lesion surface area (%) Thoracic part” value stood at 57%.
On to `CCCc1nc(C(C)(C)O)c(C(=O)OCc2oc(=O)oc2C)n1Cc1ccc(-c2ccccc2-c2nnn[nH]2)cc1` [CS-866, (5-methyl-2-oxo-1,3-dioxolen-4-yl)methyl 4-(1-hydroxy-1-methylethyl)-2-propyl-1-[2′-(1H-tetrazol-5-yl)biphenyl-4-ylmethyl]imidazole-5-carboxylate], for which, in assay [2], the “Xanthochromia incidence (%) Forelimbs” value was determined as 100%, the “Xanthochromia incidence (%) Hindlimbs” value is recorded as 100% and the “Xanthochromia incidence (%) Overall” value came to 100%. Moreover, in assay [1], the “Lesion surface area (%) Abdominal region” value was 32 ± 8%, the “Lesion surface area (%) Arcuate region” value was 66 ± 5%, the “Lesion surface area (%) Overall” value stood at 44 ± 7% and the “Lesion surface area (%) Thoracic part” value stood at 41 ± 10%. In addition, in assay [3], the “Lesion surface area (%) Abdominal region” value turned out to be 19%, the “Lesion surface area (%) Arcuate region” value is reported as 68%, the “Lesion surface area (%) Overall” value is 34% and the “Lesion surface area (%) Thoracic part” value is on record as 26%.
On to `CN(CCOc1ccc(CC2SC(=O)NC2=O)cc1)c1ccccn1` (centres unmarked) [BRL-49653, 5-[4-[2-[N-methyl-N-(pyridin-2-yl)amino]ethoxy]phenylmethyl]-2,4-thiazolidinedione], for which, in assay [1], the “Lesion surface area (%) Abdominal region” value is 29 ± 4%, the “Lesion surface area (%) Arcuate region” value is on record as 83 ± 2%, the “Lesion surface area (%) Overall” value is 52 ± 5% and the “Lesion surface area (%) Thoracic part” value stood at 54 ± 12%.
